# Laboratory results taken from PMC12350126, “A novel carboxamide bromodomain inhibitor attenuates osteoarthritis via epigenetic repression of NF-κB and MAPK signaling” (Frontiers in Immunology, 2025).
# Legend:
# BRD2 (BD1 + BD2) = target: T1, BRD2 (BD1 + BD2) (Homo sapiens, UniProt P25440); experiment: TR-FRET assay, BRD2 (BD1 + BD2); conditions: lower signal = stronger binding
# T1 construct: kits specific for BRD2 (BD1 + BD2); purchased BPS Bioscience
# Method: (§1) TR-FRET assays were conducted using kits specific for BRD2 (BD1 + BD2), BRD3 (BD1 + BD2), and BRD4 (BD1 + BD2) obtained from BPS Bioscience (San Diego, CA, USA). Bromodomain ligands were diluted in water, and master mixes were prepared by combining the diluted ligands with 1× BRD Homogeneous Assay Buffer. Thawed BRD proteins were also diluted with the same buffer. For each assay, 1.5 μL of the master mix was dispensed into wells of a microplate (Labcyte, San Jose, CA, USA), followed by the addition of 5 μL of diluted BRD protein to initiate the reaction. Plates were incubated at 20–22°C for 30–60 min. Subsequently, glutathione (GSH) acceptor beads and streptavidin-conjugated donor beads (both from PerkinElmer, Waltham, MA, USA) were diluted in 1× BRD Homogeneous Detection Buffer 1. Next, 10 μL of the acceptor bead solution was added to each well and incubated at 18°C for 30 min, followed by the addition of 10 μL of donor bead solution and a further incubation at 18°C for 15–30 min. Alpha particle counts were measured using an EnVision 2105 multimode plate reader (PerkinElmer).
# BRD3 BD1 = target: T2, BRD3 BD1 (Homo sapiens, UniProt Q15059); experiment: Biosensor binding kinetics assay (Octet), BRD3 BD1
# T2 construct: biotinylated BRD2 BD1, BRD2 BD2, BRD3 BD1; biotin (biotinylated protein); made in house; host or cells: Escherichia coli BL21(DE3)
# Method: (§2) Binding kinetics were assessed using the Octet® R2 system (Sartorius, Göttingen, Germany). Superstreptavidin biosensors were loaded with biotinylated BRD2 BD1, BRD2 BD2, BRD3 BD1, BRD3 BD2, BRD4 BD1, BRD4 BD2, or biotin alone (as a negative control) in PBST buffer (phosphate-buffered saline containing 0.02% Tween 20 and 5% DMSO). The sensors were then dipped into compound solutions for 10 min. To evaluate association kinetics (kon), each sensor was exposed to serial dilutions of the protein for 180 s, followed by dipping them into PBST buffer to assess dissociation kinetics (koff). For control, a separate sensor loaded with the compound was dipped into PBST alone. Competition binding assays were performed by exposing the compound-loaded sensor to mixtures of proteins and test compounds.
# BRD4 (BD1 + BD2) = target: T3, BRD4 (BD1 + BD2) (Homo sapiens, UniProt O60885); experiment: TR-FRET assay, BRD4 (BD1 + BD2); conditions: lower signal = stronger binding
# T3 construct: BRD4 (BD1 + BD2); purchased BPS Bioscience
# Method: as §1
# [1] = tested on: NF-κB and MAPK signaling in mouse articular chondrocytes; experiment: IL-1β-induced NF-κB and MAPK signaling in chondrocytes (western blotting, densitometry); format: cell-based; conditions: NCD 10, 50, 100 μM pretreatment 12 h, IL-1β 1 ng/mL 10 min
# Method: The total protein was extracted from the primary cultured chondrocytes using a lysis buffer, containing 150 mM NaCl, 1% NP-40, 50 mM Tris/HCl (pH 8.0), 0.2% sodium dodecyl sulfate, and 5 mM NaF, supplemented with protease and phosphatase inhibitor mixture (Roche, Madison, WI, USA). Proteins were separated using sodium dodecyl sulfate-polyacrylamide gel electrophoresis, and western blot analysis was performed using the following antibodies: goat anti‐Cox2 (sc‐1745; Santa Cruz Biotechnology, Dallas, TX, USA), mouse anti-Erk1/2 (610408; Becton Dickinson, NJ, USA), mouse anti-IκB [9242; Cell Signaling Technology (CST), MA, USA], mouse anti-p65 (8242; CST), mouse anti-phospho-p65 (3033; CST), mouse anti-p38 (#9212; CST), mouse anti-pp38 (#9215S; CST), mouse anti-c-Jun N-terminal kinase (Jnk) (#9252S; CST), mouse anti-pJnk (#9251S; CST), and mouse anti-pErk (#9101S; CST). Each signal was visualized using a SuperSignal West Dura Kit (Thermo Fisher Scientific, Waltham, MA, USA). Density analysis (AlphaEase FC 4.0; Alpha Innotech, CA, USA) was performed to calculate the relevant band intensities. Extracellular signal-regulated kinase (Erk) was used as the loading control ([28]).
# Figure 6 NCD regulates NF-κB and MAPK signaling pathways induced by IL-1β in mouse chondrocytes. Articular chondrocytes were pretreated with NCD at different concentrations (0,10, 50, or 100 μM) for 12 h (n = 3) before being stimulated with IL-1β (1 ng/mL) for 10 min. Levels of phosphorylated Jnk (pJnk), phosphorylated Erk (pErk), and phosphorylated p38 (pp38) proteins were determined using western blotting. (A, B) Protein levels of IκB were detected using western blotting (A) and densitometry (B). JQ-1 (200 μM) was used as a positive control. All data were analyzed using one‐way analysis of variance with Bonferroni’s test and expressed as mean ± standard error of mean (SEM) (n = 3); *P < 0.05, **P < 0.01, ***P < 0.001, and ****P < 0.0001 compared to the control group.
# BRD3 (BD1 + BD2) = target: T4, BRD3 (BD1 + BD2) (Homo sapiens, UniProt Q15059); experiment: TR-FRET assay, BRD3 (BD1 + BD2); conditions: lower signal = stronger binding
# T4 construct: BRD3 (BD1 + BD2); purchased BPS Bioscience
# Method: as §1
# BRD4 BD1 = target: T5, BRD4 BD1 (Homo sapiens, UniProt O60885); experiment: Biosensor binding kinetics assay (Octet), BRD4 BD1
# T5 construct: BRD3 BD2, BRD4 BD1, BRD4 BD2; biotin (biotinylated protein); made in house; host or cells: Escherichia coli BL21(DE3)
# Method: as §2
# T1 sequence (P25440 65-459 limits assumed): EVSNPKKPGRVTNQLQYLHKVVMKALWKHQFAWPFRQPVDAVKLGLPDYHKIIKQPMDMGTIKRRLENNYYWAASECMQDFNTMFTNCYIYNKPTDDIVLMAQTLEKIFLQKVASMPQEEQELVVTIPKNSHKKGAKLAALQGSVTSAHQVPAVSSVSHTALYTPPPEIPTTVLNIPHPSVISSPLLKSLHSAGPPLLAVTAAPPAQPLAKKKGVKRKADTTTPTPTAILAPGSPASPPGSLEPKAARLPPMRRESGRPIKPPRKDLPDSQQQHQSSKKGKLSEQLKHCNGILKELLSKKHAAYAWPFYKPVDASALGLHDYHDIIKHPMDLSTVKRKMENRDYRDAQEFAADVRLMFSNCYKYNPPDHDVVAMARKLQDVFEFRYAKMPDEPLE
# T4 sequence (Q15059 29-417 limits assumed): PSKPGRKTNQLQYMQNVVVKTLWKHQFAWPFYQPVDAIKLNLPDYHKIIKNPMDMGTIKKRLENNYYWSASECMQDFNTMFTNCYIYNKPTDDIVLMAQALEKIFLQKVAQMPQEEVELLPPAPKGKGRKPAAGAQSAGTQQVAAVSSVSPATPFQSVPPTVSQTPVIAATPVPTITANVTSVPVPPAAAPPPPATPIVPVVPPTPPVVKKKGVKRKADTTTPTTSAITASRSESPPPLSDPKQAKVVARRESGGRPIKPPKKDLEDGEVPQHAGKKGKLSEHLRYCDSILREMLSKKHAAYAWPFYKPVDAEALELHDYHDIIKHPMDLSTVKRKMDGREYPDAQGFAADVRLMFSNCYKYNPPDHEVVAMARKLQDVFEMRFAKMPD
# T2 sequence (Q15059 34-140 limits assumed): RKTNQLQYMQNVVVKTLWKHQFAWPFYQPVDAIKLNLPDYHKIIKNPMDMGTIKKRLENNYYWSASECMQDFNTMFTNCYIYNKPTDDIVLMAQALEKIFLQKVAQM
compound,measurement,setting,value
"CNC(=O)CC1C(=O)NCCN1Cc1ccc(-c2ccccc2-c2cccc3c2CN(C)C3=O)o1 (stereo not shown) [NCD, N-methyl-2-(1-((5-(2-(2-methyl-1-oxoisoindolin-4-yl)phenyl)furan-2-yl)methyl)-3-oxopiperazin-2-yl)acetamide]",TR-FRET value,BRD2 (BD1 + BD2),96511 RLU
same,Kd,BRD3 BD1,> 1000 nM
same,TR-FRET value,BRD4 (BD1 + BD2),> 100000 RLU
same,Degradation of IκB,[1],effectively prevented
same,Phosphorylation level of ERK,[1],markedly reduced
same,Phosphorylation level of JNK,[1],markedly reduced
same,Phosphorylation of the p65 subunit,[1],significantly suppressed
same,p38 phosphorylation,[1],remained largely unaffected
same,TR-FRET value,BRD3 (BD1 + BD2),> 100000 RLU
same,Kd,BRD4 BD1,> 1000 nM
